# Measurements taken from patent US10624875B2, “Methods and compositions for treating schizophrenia” (The Johns Hopkins University, priority 2012, dated 2020).
# Legend:
# aMCI subjects [1] = test: Benton Visual Retention Test; type: in vivo, human; details: 125 mg twice a day for two weeks
# Description: A within-subjects trial of 8 weeks duration, involving 17 amnestic MCI (aMCI) subjects and 17 age-matched controls with a low dose treatment of levetiracetam is conducted. During the course of the study, each aMCI subject receives both drug and placebo treatments separately in two periods of two weeks each, with the order of treatments among different aMCI subjects counterbalanced (see FIG. 7). Age-matched control subjects treated with placebo serve as a further control. Cognitive testing and fMRI imaging data are obtained from the subjects after each two week period of drug/placebo treatment.
# All participants undergo neuropsychological evaluation at the time of assessment for treatment efficacy (Visits 1 and 2), as well as at the Baseline Visit. […]
# As described above, the drug treatment period is the two weeks preceding Visit 1 or 2 (with the two week period preceding the other Visit being the placebo phase). For the subjects receiving the drug treatment, half a scored 250 mg tablet of levetiracetam is used to achieve a dose of […], which is approximately 3.6 mg/kg/day (assuming an average adult human weight of 70 kg).
# aMCI subjects [2] = test: explicit 3-alternative forced choice task (lure images), cognitive performance; type: in vivo, human; details: 125 mg twice a day for two weeks, versus placebo
# Description: There are various tests known in the art for assessing cognitive function in humans, for example and without limitation, the clinical global impression of change scale (CIBIC-plus scale); the Mini Mental State Exam (MMSE); the Neuropsychiatric Inventory (NPI); the Clinical Dementia Rating Scale (CDR); the Cambridge Neuropsychological Test Automated Battery (CANTAB); the Sandoz Clinical Assessment-Geriatric (SCAG), the Buschke Selective Reminding Test (Buschke and Fuld, 1974); the Verbal Paired Associates subtest; the Logical Memory subtest; the Visual Reproduction subtest of the Wechsler Memory Scale-Revised (WMS-R) (Wechsler, 1997); the Benton Visual Retention Test, or MATRICS consensus neuropsychological test battery which includes tests of working memory, speed of processing, attention, verbal learning, visual learning, reasoning and problem solving and social cognition. […]
# As described above, the drug treatment period is the two weeks preceding Visit 1 or 2 (with the two week period preceding the other Visit being the placebo phase). For the subjects receiving the drug treatment, half a scored 250 mg tablet of levetiracetam is used to achieve a dose of […], which is approximately 3.6 mg/kg/day (assuming an average adult human weight of 70 kg). […]
smiles,measurement,setting,value
"CC[C@@H](C(N)=O)N1CCCC1=O [levetiracetam, (2S)-2-(2-oxopyrrolidin-1-yl) butanamide]",performance in Benton Visual Retention Test,aMCI subjects [1],fail to rescue performance
same,performance in the explicit 3-alternative forced choice task,aMCI subjects [2],improves significantly
